Test results reported in patent publication US20140170210A1, “METHODS FOR TREATING IMMUNOSUPPRESSION” (TRUSTEES OF DARTMOUTH COLLEGE, priority 2011, published 2014).
Read-outs that look alike come from different tables or passages of the source.

Legend:
ACAT1 [1] = molecular target: T1, ACAT1 (Homo sapiens, UniProt P35610); conditions: cited from earlier work
T1 sequence (P35610 1-550): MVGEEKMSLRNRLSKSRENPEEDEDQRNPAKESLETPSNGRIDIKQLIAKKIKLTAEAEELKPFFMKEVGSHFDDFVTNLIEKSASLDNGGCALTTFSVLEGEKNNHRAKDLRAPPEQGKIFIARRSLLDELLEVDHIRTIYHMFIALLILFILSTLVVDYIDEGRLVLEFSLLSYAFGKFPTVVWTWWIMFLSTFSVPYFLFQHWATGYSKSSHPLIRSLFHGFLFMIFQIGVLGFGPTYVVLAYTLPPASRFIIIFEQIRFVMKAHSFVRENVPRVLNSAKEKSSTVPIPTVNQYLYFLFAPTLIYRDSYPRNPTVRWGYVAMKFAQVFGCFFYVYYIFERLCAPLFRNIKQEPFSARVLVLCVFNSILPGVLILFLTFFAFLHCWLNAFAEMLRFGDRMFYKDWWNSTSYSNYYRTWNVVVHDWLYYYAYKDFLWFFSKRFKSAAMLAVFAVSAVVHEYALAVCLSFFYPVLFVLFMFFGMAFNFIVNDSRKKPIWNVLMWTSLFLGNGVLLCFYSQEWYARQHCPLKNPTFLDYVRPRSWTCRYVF

hACAT-2 [2] = molecular target: T2, hACAT-2 (Homo sapiens, UniProt O75908); conditions: cited from earlier work
T2 sequence (O75908 1-522): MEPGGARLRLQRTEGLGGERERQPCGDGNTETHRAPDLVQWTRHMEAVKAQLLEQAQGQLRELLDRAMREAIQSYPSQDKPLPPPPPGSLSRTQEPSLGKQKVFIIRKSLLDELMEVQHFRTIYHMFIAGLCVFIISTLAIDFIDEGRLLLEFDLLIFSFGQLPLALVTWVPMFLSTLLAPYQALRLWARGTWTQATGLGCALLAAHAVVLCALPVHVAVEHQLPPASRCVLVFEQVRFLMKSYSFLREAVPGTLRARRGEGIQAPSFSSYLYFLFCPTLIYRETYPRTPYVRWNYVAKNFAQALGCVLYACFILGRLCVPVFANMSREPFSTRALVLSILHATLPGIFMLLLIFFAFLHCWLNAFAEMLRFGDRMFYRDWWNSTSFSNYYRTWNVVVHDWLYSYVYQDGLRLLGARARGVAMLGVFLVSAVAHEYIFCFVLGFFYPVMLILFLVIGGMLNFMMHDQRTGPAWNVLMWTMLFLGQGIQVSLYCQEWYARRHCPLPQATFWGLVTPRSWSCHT

[3] = rats, dogs, and humans; cited from earlier work
human macrophages = conditions: in vitro; cited from earlier work
coronary atherosclerosis = conditions: in combination with a statin drug, patients; cited from earlier work
[4] = test system: amyloid plaque load and cognitive deficits; conditions: cited from earlier work
[5] = test system: cholesterol ester content in various systemic tissues; conditions: 4-30 mg/kg/day, small animals; cited from earlier work
[6] = laboratory animals; cited from earlier work
WT and Acat1-/- BM cells = test: Proliferation of cultured BM cells, 3H-thymidine pulse; assay type: cell-based, mouse; conditions: for effect on higher 3H-thymidine incorporation phenotype of Acat1-/- BM cells: 10 μM U0126, 1 μM PP2, 72 hours culture with growth factors
Protocol: WT and Acat1−/− BM cells were cultured in IMDM media containing 10% FBS in the presence of indicated growth factors with or without specific inhibitors as indicated for 72 hours. Concentrations of growth factors used: 100 ng/mL for stem cell factor, 6 ng/mL for IL3; 2 ng/ml for GM-CSF. Concentration of inhibitors used: 10 μM for U0126; 1 μM for PP2. Proliferation was measured after a 3 hour ^3H-thymidine pulse in intact cells. Results are means±SEM of duplicate cultures in 3 separate experiments. **P<0.01, * P<0.05 vs. WT.
For cell proliferation measurement in vivo, the manufacturer's protocol (BD Pharmingen; BrdU flow kit) was used. Age- and sex-matched mice of both genotypes were injected intraperitoneally twice, once every 12 hours, with 0.5 mg bromodeoxyuridine (BrdU)/injection/mouse. Twenty-four hours after the first injection, BM progenitor cells (LSKs, CMPs, GMPs, and MEPs) were stained and sorted as described earlier. Proliferation of each of the sorted cell populations was measured by measuring BrdU incorporation, using the BrdU flow kit (BD Pharmingen). Proliferation measurement of BM derived-myeloid cells in culture was carried out using a known method (Yvan-Charvet et al. 2010. supra). Briefly, after lysis of red blood cells from crude BM, cells were cultured in IMDM (Gibco) containing 10% fetal bovine serum (FBS) for 2 hours to remove attached cells. The unattached cells were replated for 72 hours in various conditions as described in FIG. 4. Stem cell factor, IL3, and GM-CSF were from R&D Systems. U0126, PP2, and ApoA1 were from Sigma. Squalene synthase inhibitor (SSI) compound CP-340868 was from Pfizer. Cells were pulsed with 2 μCi/mL ^3H-thymidine for 3 hours and ^3H-thymidine incorporation was monitored by using liquid scintillation counter.

ACAT1 and ACAT2 = conditions: cited from earlier work
[7] = test system: atherosclerosis, familial hypercholesterolemia; conditions: patients with high risk for atherosclerosis or familial hypercholesterolemia; cited from earlier work
ACAT1 [8] = molecular target: T1, ACAT1; conditions: cited from earlier work; remark: listed apart in the source
hACAT-2 [9] = molecular target: T2, hACAT-2; conditions: cited from earlier work; remark: listed apart in the source
ACAT2 = molecular target: T3, ACAT2 (Chlorocebus aethiops, UniProt O77759); conditions: read-out: selective inhibition, ACAT2; cited from earlier work
T3 sequence (O77759 1-526): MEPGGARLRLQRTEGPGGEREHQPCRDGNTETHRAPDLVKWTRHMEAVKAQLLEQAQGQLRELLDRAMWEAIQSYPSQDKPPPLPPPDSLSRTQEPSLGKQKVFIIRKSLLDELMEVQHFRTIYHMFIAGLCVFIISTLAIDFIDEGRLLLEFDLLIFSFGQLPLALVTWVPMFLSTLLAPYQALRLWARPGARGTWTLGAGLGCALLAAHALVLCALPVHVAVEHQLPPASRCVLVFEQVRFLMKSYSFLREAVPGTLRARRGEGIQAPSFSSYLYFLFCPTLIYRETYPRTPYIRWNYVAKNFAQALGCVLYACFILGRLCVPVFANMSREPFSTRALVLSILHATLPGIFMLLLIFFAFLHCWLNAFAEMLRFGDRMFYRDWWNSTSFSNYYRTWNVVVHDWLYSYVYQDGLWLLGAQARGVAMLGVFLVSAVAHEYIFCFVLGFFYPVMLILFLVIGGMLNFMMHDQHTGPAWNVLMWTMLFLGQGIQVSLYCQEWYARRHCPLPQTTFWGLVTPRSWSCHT

ACAT1 [10] = molecular target: T1, ACAT1; conditions: cited from earlier work; remark: listed apart in the source
mouse ACAT1 = test: ACAT1 knockdown by Acat1 miRs in NIH-3T3 mouse fibroblasts; assay type: cell-based; conditions: pre-microRNAs SEQ ID NO:5 and 6
Text: Four different siRNA sequences (#52-#55) targeting the mouse Acat1 (also called Soat1) gene were inserted into an endogenous mouse microRNA (miR) scaffold using Invitrogen's RNAi design tool. The artificial miRs were ligated into the mammalian expression vector pcDNA6.2-GW/EmGFP-miR. […] The miRs were delivered to the cells by using standard cDNA transfection protocol. […] These two Acat1 miR sequences and the NC miR sequence were also subcloned into an rAAV backbone vector (AAV-6P-SEWB) that contained the […]. This vector contains a strong and cell-type-nonspecific promoter that expresses Acat1 miRs in any cell type where the viral genome is expressed. For identification purpose, it also coexpresses the GFP with the miRs. These three constructs were used to produce three recombinant AAV viruses. To test the efficacy and specificity of these viruses, cultured primary hippocampal neurons were treated with the NC AAV, or with AAV that expresses miR that contain siRNA Acat1 #55. Two weeks after viral infection, the effects of AAVs on cholesteryl ester biosynthesis in neurons were tested. […] One month after injection, mice were sacrificed and the ACAT1 enzyme activities in the mouse brain homogenates were analyzed by using standard ACAT enzyme activity assay in vitro.

[11] = mouse model for Alzheimer disease

## CC(C)c1cc(C(C)C)c(CC(=O)NS(=O)(=O)Oc2c(C(C)C)cccc2C(C)C)c(C(C)C)c1 [Avasimibe]
ACAT1 [1]
  IC50: 18.7 µM
hACAT-2 [2]
  IC50: 19.1 µM
[3]
  safety when administered: safe
Human macrophages
  foam cell formation in macrophages: reduces foam cell formation
Coronary atherosclerosis
  efficacy to further reduce progression of coronary atherosclerosis: failed to demonstrate efficacy
[4]; 14.4 mg/kg/day
  activity in a mouse model for Alzheimer's disease: beneficial activity
[4]; [11]
  amyloid plaque load: significant decreases
  cognitive deficits: reduction in cognitive deficits
[5]
  reducing cholesterol ester content in various systemic tissues: effective

## CSc1cc(C)nc(SC)c1NC(=O)CN1CCN(CCSc2nc3ccccc3[nH]2)CC1 [K-604]
[6]
  safety for use in vivo: safe

## CC(C)(C)n1nc(-c2ccc(Cl)cc2)c2c(N)ncnc21 [PP2]
WT and Acat1-/- BM cells
  effect on higher 3H-thymidine incorporation phenotype of Acat1-/- BM cells: partially alleviated

## CCCCCCCCN1CCc2c(C)c(CC(=O)O)c(C)c(NC(=O)C(C)(C)C)c21 [Pactimibe]
ACAT1 and ACAT2
  relative potency on ACAT1 and ACAT2: approximately equal potency
[7]
  efficacy as a supplement to statin treatment: lacked efficacy

## N#CC(=C(/N)Sc1ccccc1N)/C(C#N)=C(\N)Sc1ccccc1N [U0126]
WT and Acat1-/- BM cells
  effect on higher 3H-thymidine incorporation phenotype of Acat1-/- BM cells: partially alleviated

## CCOC(=O)OC(=O)OCC [diethyl pyrocarbonate]
ACAT1 [8]
  greater activity on ACAT1 compared to ACAT-2: 4 fold

## COc1ccc([C@@H](O)[C@@H](C)Oc2ccc([C@H]3O[C@H](c4ccc(O[C@H](C)[C@H](O)c5ccc6c(c5)OCO6)c(OC)c4)[C@H](C)[C@H]3C)cc2OC)cc1OC [manassantin B]
hACAT-2 [9]; at 1 mM
  inhibition of hACAT-2: 32%

## ApoA1: a cellular cholesterol efflux mediator
WT and Acat1-/- BM cells; ApoA1 at 50 or 100 μg/ml
  effect on enhanced proliferation of Acat1-/- BM cells: did not diminish

## beauveriolide I
ACAT2
  IC50: 20 µM

## saucerneol B
ACAT1 [10]
  IC50: 43 µM
hACAT-2 [9]
  IC50: 124 µM

B1: #54: microRNA against mouse ACAT1, target sequence SEQ ID NO:3; pre-microRNA SEQ ID NO:5 (nucleic acid)
chain: TGCTGTCCAGTATCAGAATGAACCGGGTTTTGGCCACTGACTGACCCGGTTCACTGATACTGGA
modifications: expressed or natural sequence
Mouse ACAT1
  mouse ACAT1 expression: decrease

B2: #55: microRNA against mouse ACAT1, target sequence SEQ ID NO:4; pre-microRNA SEQ ID NO:6 (nucleic acid)
chain: TGCTGTACAGTAGGAGTCCTTGGGTAGTTTTGGCCACTGACTGACTACCCAAGCTCCTACTGTA
modifications: expressed or natural sequence
Mouse ACAT1
  mouse ACAT1 expression: decrease
